# From US20120022113A1, “METHODS FOR S[…] T[…] ACCUMULATION AND PREVENTING HYPERCYTOKINEMIA” (priority 2009, published 2012)
# Tests used:
# [1] = test system: H1N1 A/Puerto Rico/8/34 (PR8) influenza A virus; parameters: species or system B6 mice; conditions: mouse, in vivo
# [2] = test system: influenza virus in madin-darby canine kidney (MDCK) cells; test: Virus replication in MDCK cells; conditions: up to 1 μg/ml, compared to PBS
smiles,measurement,setting,value
CCc1ccc(CCOc2ccc(CC3SC(=O)NC3=O)cc2)nc1 (centres unmarked) [pioglitazone],mortality,[1],50%
same,inhibition of virus replication in MDCK cells,[2],did not inhibit
